In paper PMC9477735, “Phosphorylation of muramyl peptides by NAGK is required for NOD2 activation” (Nature, 2022):

How the values were obtained:
[1] = biological target: T1, N-acetylglucosamine kinase (NAGK) (Homo sapiens, UniProt Q9UJ70); assay: in vitro kinase assay with [γ-32P]ATP and TLC; LC-MS/MS; NMR of product; type: biochemical
T1 construct: full-length human NAGK, recombinant from E. coli, His-MBP tag removed

[2] = biological target: T1, N-acetylglucosamine kinase (NAGK); assay: in vitro kinase assay with [γ-32P]ATP and TLC; type: biochemical

T1 sequence (Q9UJ70 2-344): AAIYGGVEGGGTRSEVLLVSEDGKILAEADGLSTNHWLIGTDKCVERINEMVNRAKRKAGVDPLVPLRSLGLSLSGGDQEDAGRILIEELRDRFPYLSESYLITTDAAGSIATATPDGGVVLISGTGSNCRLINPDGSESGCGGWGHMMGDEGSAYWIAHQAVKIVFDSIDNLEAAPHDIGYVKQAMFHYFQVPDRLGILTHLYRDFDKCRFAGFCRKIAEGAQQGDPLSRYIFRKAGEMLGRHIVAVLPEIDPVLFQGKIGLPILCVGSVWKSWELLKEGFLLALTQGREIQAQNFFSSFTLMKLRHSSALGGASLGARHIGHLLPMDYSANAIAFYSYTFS

Row | SMILES | in vitro kinase assay with [γ-32P]ATP and TLC; LC-MS/MS; NMR of product [1] | in vitro kinase assay with [γ-32P]ATP and TLC [2]
1 | CC(=O)N[C@H]1C(O)O[C@H](CO)[C@@H](O)[C@@H]1O[C@H](C)C(=O)N[C@@H](C)C(=O)N[C@H](CCC(=O)O)C(N)=O (some centres unmarked) [MDP] | These assays revealed that NAGK readily phosphorylated MDP and the related molecule N-acetylmuramic acid (MurNAc) | –
2 | CC(=O)N[C@H]1C(O)O[C@H](CO)[C@@H](O)[C@@H]1O (some centres unmarked) [GlcNAc, N-acetylglucosamine] | – | to similar levels as its bona fide substrate GlcNAc (Fig. 3b)
